The text below walks through data of US20200038338A1, “LONG TERM DRUG DELIVERY BY TATTOO” (priority 2018, published 2020).

The test system of data set [1] is psoriatic plaques. The data set is described as follows: Treatment of psoriasis: methotrexate delivered to the dermal layer by tattoo machine. The class given is in vivo. The following applies: control: 25 mg/ml methotrexate by injection once a month for 9 months.
Data set [2] concerns terminal hairs of beard or scalp (alopecia). Briefly: Treatment of alopecia: minoxidil delivered to the dermis by tattoo machine. In kind it is in vivo. As to conditions: 5 wt % minoxidil suspension in PEG 400 by tattoo to dermis, once every 2 months, after 6 months (3 sessions); versus control side with minoxidil in water to saturation; three subjects. As to the method:
A suspension of minoxidil suspension at 5 wt % is created in a PEG 400 vehicle. As a control minoxidil is added to water to saturation. The test and control agents are delivered by tattoo machine to the dermis on independent sides of the face (either beard, eyebrow, or scalp) of the same subject once every 2 months for 6 months (i.e. 3 administrations). Three different subjects were tested. The side that was treated in the beard or scalp had approximately 300% more terminal (thick, strong) hairs per unit area, after 6 months (3 sessions).

Data set [3] concerns androgenetic alopecia (hair loss). The following applies: minoxidil microinjections once a month for four months; cited from earlier work.
Data set [4] concerns basal cell carcinoma (BCC). Briefly: Treatment of basal cell carcinoma: vismodegib delivered by tattoo machine.

With `CN(Cc1cnc2nc(N)nc(N)c2n1)c1ccc(C(=O)N[C@@H](CCC(=O)O)C(=O)O)cc1` [methotrexate], the “side effects, control” value in data set [1] is recorded as “increased liver enzymes”.
Take `Nc1cc(N2CCCCC2)nc(N)[n+]1[O-]` [minoxidil]: in data set [2], the “more terminal (thick, strong) hairs per unit area on the treated side” value was “approximately 300%”. Besides, the “side effects noted by the subjects” value in data set [3] is “No side effects were noted by the subjects, besides minor localized pain”.
`CS(=O)(=O)c1ccc(C(=O)Nc2ccc(Cl)c(-c3ccccn3)c2)c(Cl)c1` [vismodegib]: the “side effects, control” value in data set [4] (control: vismodegib orally for 6 months) was “muscle tremors, loss of appetite, reduction of smell and taste”. In data set [4] (control: vismodegib orally, first 6 months), the “BCCs resolved, control” value came to 50%. Moreover, the “clearance of the BCC” value in data set [4] (vismodegib suspension with polyethylene glycol by tattoo machine, once a week for 6 months) is given as 90%.
